{
  "source": "patent US6440978B2",
  "about": "“Therapeutic agent for dermatitis” (Nippon Zoki Pharmaceutical Co., Ltd., priority 2000, dated 2002)",
  "key": {"[1]": {"system": "antigen-induced swelling reaction in a mouse ear", "test": "Suppressive action against antigen-induced swelling reaction in a mouse ear", "assay_type": "in vivo, BALB/c female mice", "description": "(§1) Seven week old BALB/c female (SPF) mice of were selected as subjects. According to a method of Tanaka, et al. (Allergy, 46, pages 42-48(1997)), egg white albumin (final concentration: 2 μg/mL) and aluminum hydroxide gel (final concentration: 10 mg/mL) were suspended in physiological saline and 0.5 mL of the suspension was administered to effect intraperitoneal sensitization on the first day of the test. On the 14th day of the test, an additional sensitization was carried out under the same conditions. Further, on the 28th day of the test, 25 μL of egg albumin (a 20 μg/mL solution in physiological saline) was intradermally administered to the right ear of a mouse to induce a swelling reaction.\n(§2) This swelling reaction reached its peak at 4 hours after the challenge by the antigen. Even after 24 to 48 hours, a significant swelling reaction was noted as compared with the control in which antigen was merely challenged (not sensitized). […] On the contrary, the swelling from 24 to 48 hours after the challenge is thought to be the so-called delayed-type swelling reaction accompanied by infiltration of eosinophils, neutrophils and lymphocytes. In addition, a flare-up reaction having a peak at 24 hours after the challenge appeared on the ear of the antigen-induced site. Like swelling, flare-up is an important symptom of inflammation. Although the mechanism of the flare-up reaction is ambiguous, it may be a flare-up reaction of a delayed type in view of the time course of its expression. As such, this model animal in which the inflammation of both immediate and delayed types are induced is appropriate as a model animal for atopic dermatitis. In the following experiment, the effectiveness of the therapeutic agent for dermatitis according to the present invention was tested using the said model animal.\nEach of a vehicle (control) and a test agent (containing the compound of the present invention or a positive control) was applied to the antigen-induced site (right auricle) of a mouse. A swelling reaction was induced in accordance with Example 2 at 2 hours before and 4 hours after the challenge. After the challenge, the thickness of the swelling induced ear was measured by a Dial Thickness Gauge (manufactured by Ozaki Seisakusho). The intensity of the reaction was expressed in terms of an increase in the auricle thickness by deducting the thickness (early value) measured before the challenge from the thickness of the swelling induced ear. The suppression rate of the test drug for ear swelling was calculated by the following formula:\nSuppression Rate (%)=100 ×[(Ear Thickness Increase of Vehicle-Only-Control)—(Ear Thickness Increase of the Test Group)]/[(Ear Thickness Increase of the Vehicle-Only-Control)—(Ear Thickness Increase of the Challenge-Only-Group)]"}, "ear of a normal mouse": {"system": "ear of a normal mouse", "test": "Influence of repeated application on the ear thickness of a normal mouse", "assay_type": "in vivo", "description": "The therapeutic agent for dermatitis according to the present invention or the positive control (steroid preparation) was applied twice daily to the right ear of a normal mouse for a total of nine times and, 2 hours after the final application, the thickness of the ear was measured."}, "[2]": {"system": "antigen-induced flare-up reaction in a mouse", "test": "Suppressive action against antigen-induced flare-up reaction in a mouse", "assay_type": "in vivo, BALB/c female mice", "details": "0.12% ointment", "description": "as §1, §2\nEach of a vehicle (control) and an agent for the test (the therapeutic agent for dermatitis according to the present invention or a positive control) was applied to the antigen-induced site (right auricle) of a mouse to induce a swelling reaction in accordance with Example 2 at 2 hours before and 4 hours after the challenge. The right ear was observed by naked eye and the degree of flare-up was scored according to the following standard:\n1: in such a degree that a flare-up was confirmed, the color is clear red or pale red and the size was small\n2: between score 3 and score 1\n3: color of the flare-up was clearly red and the size of the flare-up was big"}, "[3]": {"details": "Table 2, 1% ointment, 24 hr after challenge"}, "[4]": {"details": "Table 2, 3% ointment, 24 hr after challenge"}, "[5]": {"details": "Table 1, 0.12% ointment, 1 hr after challenge"}, "[6]": {"details": "Table 1, 0.12% ointment, 8 hr after challenge"}, "[7]": {"details": "Table 1, 0.12% ointment, 24 hr after challenge"}, "[8]": {"details": "Table 1, 0.12% ointment, 48 hr after challenge"}, "[9]": {"details": "Table 2, 0.12% ointment, 24 hr after challenge"}},
  "data": [
    {"smiles": "Nc1ccc2c(=O)n(Cc3ccccc3Cl)c(=O)n(-c3ccccc3)c2n1", "note": "[Compound 2, 7-amino-3-(2-chlorobenzyl)-1,2,3,4-tetrahydro-1-phenylpyrido[2,3-d]pyrimidin-2,4-dione]", "values": [
      {"measurement": "Ear Thickness Increase at 4 hr after Challenge", "setting": "[1]; Table 2, 1% ointment", "value": "19.5 ± 3.2", "unit": "× 0.01 mm"},
      {"measurement": "Suppression Rate of ear thickness increase at 4 hr after Challenge", "setting": "[1]; Table 2, 1% ointment", "value": "(22.2%)"},
      {"measurement": "Ear Thickess Increase at 24 hr after Challenge", "setting": "[1]; [3]", "value": "11.8 ± 2.6", "unit": "× 0.01 mm"},
      {"measurement": "Suppression Rate of ear thickness increase at 24 hr after Challenge", "setting": "[1]; [3]", "value": "(30.3%)"},
      {"measurement": "Ear Thickness Increase at 4 hr after Challenge", "setting": "[1]; Table 2, 3% ointment", "value": "19.3 ± 2.4", "unit": "× 0.01 mm"},
      {"measurement": "Suppression Rate of ear thickness increase at 4 hr after Challenge", "setting": "[1]; Table 2, 3% ointment", "value": "(23.1%)"},
      {"measurement": "Ear Thickess Increase at 24 hr after Challenge", "setting": "[1]; [4]", "value": "8.0 ± 1.4", "unit": "× 0.01 mm"},
      {"measurement": "Suppression Rate of ear thickness increase at 24 hr after Challenge", "setting": "[1]; [4]", "value": "(54.8%)"}
    ]},
    {"smiles": "CCCCC(=O)O[C@]1(C(=O)CO)[C@@H](C)C[C@H]2[C@@H]3CCC4=CC(=O)C=C[C@]4(C)[C@@]3(F)[C@@H](O)C[C@@]21C", "note": "[Positive Control, betamethasone valerate, reference compound]", "values": [
      {"measurement": "Ear Thickness", "setting": "ear of a normal mouse; 0.12% ointment applied twice daily, nine times in total, 2 hours after final application", "value": "18.3 ± 0.5", "unit": "× 0.01 mm"},
      {"measurement": "influence of repeated application on auricle thickness", "setting": "ear of a normal mouse; positive control ointment, repeated application", "value": "significantly reduced the auricle thickness"},
      {"measurement": "Suppression Rate of flare-up score at 4 hr after Challenge", "setting": "[2]; 4 hr after challenge", "value": "(25.0%)"},
      {"measurement": "Flare-up Score at 4 hr after Challenge", "setting": "[2]; 4 hr after challenge, score 0-3", "value": "0.6 ± 0"},
      {"measurement": "Suppression Rate of flare-up score at 24 hr after Challenge", "setting": "[2]; 24 hr after challenge", "value": "(40.0%)"},
      {"measurement": "Flare-up Score at 24 hr after Challenge", "setting": "[2]; 24 hr after challenge, score 0-3", "value": "1.5 ± 0.2"},
      {"measurement": "Ear Thickness Increase at 1 hr after Challenge", "setting": "[1]; [5]", "value": "8.3 ± 0.7", "unit": "× 0.01 mm"},
      {"measurement": "Suppression Rate of ear thickness increase at 1 hr after Challenge", "setting": "[1]; [5]", "value": "(45.5%)"},
      {"measurement": "Ear Thickness Increase at 4 hr after Challenge", "setting": "[1]; Table 1, 0.12% ointment", "value": "16.3 ± 2.0", "unit": "× 0.01 mm"},
      {"measurement": "Suppression Rate of ear thickness increase at 4 hr after Challenge", "setting": "[1]; Table 1, 0.12% ointment", "value": "(42.0%)"},
      {"measurement": "Ear Thickness Increase at 8 hr after Challenge", "setting": "[1]; [6]", "value": "2.0 ± 1.2", "unit": "× 0.01 mm"},
      {"measurement": "Suppression Rate of ear thickness increase at 8 hr after Challenge", "setting": "[1]; [6]", "value": "(49.7%)"},
      {"measurement": "Ear Thickness Increase at 24 hr after Challenge", "setting": "[1]; [7]", "value": "5.0 ± 1.0", "unit": "× 0.01 mm"},
      {"measurement": "Suppression Rate of ear thickness increase at 24 hr after Challenge", "setting": "[1]; [7]", "value": "(80.0%)"},
      {"measurement": "Ear Thickness Increase at 48 hr after Challenge", "setting": "[1]; [8]", "value": "2.0 ± 1.0", "unit": "× 0.01 mm"},
      {"measurement": "Suppression Rate of ear thickness increase at 48 hr after Challenge", "setting": "[1]; [8]", "value": "(100.0%)"},
      {"measurement": "Ear Thickness Increase at 4 hr after Challenge", "setting": "[1]; Table 2, 0.12% ointment", "value": "11.0 ± 0.6", "unit": "× 0.01 mm"},
      {"measurement": "Suppression Rate of ear thickness increase at 4 hr after Challenge", "setting": "[1]; Table 2, 0.12% ointment", "value": "(60.0%)"},
      {"measurement": "Ear Thickess Increase at 24 hr after Challenge", "setting": "[1]; [9]", "value": "6.3 ± 2.4", "unit": "× 0.01 mm"},
      {"measurement": "Suppression Rate of ear thickness increase at 24 hr after Challenge", "setting": "[1]; [9]", "value": "(65.8%)"}
    ]}
  ]
}
